Reference: patent US9290791B2, “Reagents and methods for sirtuin capture” (CORNELL UNIVERSITY, priority 2010, dated 2016)

Tests used:
[1] = target: T1, SirT1 (Homo sapiens, UniProt Q96EB6); experiment: HPLC deacetylation assay of SirT1 with p53mer; type: biochemical; settings: 3 μM SirT1, 500 μM NAD+, 300 μM p53mer, various concentrations of suramin; FIG. 11
Experimental: HPLC assay: reactions were performed in 100 mM phosphate buffer pH 7.5 in a total volume of 50 μL. Each reaction contained 500 μM of NAD^+, 300 μM of p53mer and various concentrations of suramin. Reactions were initiated by addition of SirT1 to a final concentration of 3 μM. A negative control which contained 500 μM of NAD^+ and 300 μM of p53mer, but was quenched by addition of TFA before the addition of enzyme was run at the same time. The reactions were incubated at 37° C. for 20 min before being quenched by 8 of 10% TFA. The samples were then injected on an HPLC fitted to a Macherey-Nagel Nucleosil C18 column. AADPR, NAD^+ and NAM peaks were resolved using a gradient of 0 to 10% methanol in 20 mM ammonium acetate. Chromatograms were analyzed at 260 nm.

[2] = target: T2, SirT3 (Homo sapiens, UniProt Q9NTG7); experiment: Sirtuin inhibitor screening pulldown assay (NAD+, azido-thiotripeptide, alkynyl-biotin; SDS-PAGE, silver stain); type: biochemical; settings: 500 μM inhibitor; sirtuin mixture, 4.9 μM SirT3, 500 μM NAD+, 200 μM 4-azido-BzlK(AcS)AAOMe; FIG. 10
T2 construct: poly histidine tag (N); made in house; host or cells: E. coli BL21-CodonPlus(DE3)-RIPL
T2 sequence (Q9NTG7 1-399): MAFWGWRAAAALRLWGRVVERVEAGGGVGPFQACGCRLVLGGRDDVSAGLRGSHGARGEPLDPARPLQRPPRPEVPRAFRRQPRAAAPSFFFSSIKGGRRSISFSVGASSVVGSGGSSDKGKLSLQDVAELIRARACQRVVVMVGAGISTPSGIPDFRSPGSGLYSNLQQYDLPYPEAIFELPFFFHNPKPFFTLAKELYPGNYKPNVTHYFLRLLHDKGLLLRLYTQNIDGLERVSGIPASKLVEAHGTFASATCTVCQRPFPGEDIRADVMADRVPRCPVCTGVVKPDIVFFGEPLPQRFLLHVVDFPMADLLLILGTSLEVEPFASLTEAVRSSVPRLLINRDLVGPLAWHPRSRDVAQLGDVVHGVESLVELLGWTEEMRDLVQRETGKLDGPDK
Experimental: (§1) The key criterion for our pulldown technology is the formation of a stalled thioimidate complex with a cross-linkable moiety at the active site on sirtuins. If the presence of a sirtuin inhibitor can interrupt thioimidate formation, there will be less or no sirtuin can be harvested later on.
(§2) Pulldown assay: a typical reaction was performed in 100 mM phosphate buffer pH 7.5 in a total volume of 100 μL. Each reaction contained 500 μM of NAD^+, 200 μM of 4-azido-BzlK(AcS)AAOMe, and various concentrations of potential inhibitors. One control experiment which contained 500 μM of NAD^+ only were run at the same time. Reactions were initiated by addition of enzymes with final concentrations: 5 μM for SirT1, 3.4 μM for SirT2, 4.9 μM for SirT3, 5.04 μM for SirT5 and 5.35 μM for SirT6. Reactions were incubated at 37° C. for 30 min and then alkynyl-biotin was added to each sample to a final concentration of 500 μM followed by 3 μL of freshly premixed click chemistry cocktail: CuSO4 (final concentration 1 mM), tris[(1-benzyl-1H-1,2,3-triazol-4-yl)methyl]amine (TBTA, final concentration 600 μM) and tris(2-carboxyethyl)phosphine hydrochloride (TCEP, final concentration 2 mM). The samples were incubated at room temperature for 30 min. Then, 50 μL streptavidin beads (pretreated with 1 mM of BSA) were added to each sample and the incubation were continued at room temperature for 1 h. […]

[3] = target: T1, SirT1; experiment: as above; type: biochemical; settings: 500 μM inhibitor; sirtuin mixture, 5 μM SirT1, 500 μM NAD+, 200 μM 4-azido-BzlK(AcS)AAOMe; FIG. 10
Experimental: as §1, §2

[4] = target: T3, SirT5 (Homo sapiens, UniProt Q9NXA8); experiment: as above; type: biochemical; settings: 500 μM inhibitor; sirtuin mixture, 5.04 μM SirT5, 500 μM NAD+, 200 μM 4-azido-BzlK(AcS)AAOMe; FIG. 10
T3 construct: SirT5(34-302); poly histidine tag (N); made in house; host or cells: E. coli BL21-CodonPlus(DE3)-RIPL
T3 sequence (Q9NXA8 34-302): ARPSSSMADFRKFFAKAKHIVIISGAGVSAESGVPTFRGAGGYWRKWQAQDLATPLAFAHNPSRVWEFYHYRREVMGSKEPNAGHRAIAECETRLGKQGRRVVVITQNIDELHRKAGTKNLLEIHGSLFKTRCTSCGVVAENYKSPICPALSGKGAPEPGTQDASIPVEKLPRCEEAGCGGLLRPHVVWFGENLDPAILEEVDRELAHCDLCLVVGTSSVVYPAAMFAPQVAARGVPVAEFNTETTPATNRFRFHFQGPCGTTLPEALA
Experimental: as §1, §2

[5] = test system: sirtuin; settings: known sirtuin inhibitor; cited from earlier work
[6] = test system: class III HDACs (sirtuins); experiment: Sirtuin inhibitor screening pulldown assay on sirtuin mixture; type: biochemical; settings: 20 μM inhibitor; mixture of SirT1, SirT2, SirT3, SirT5, SirT6; FIG. 10
Experimental: as §1, §2

T1 sequence (Q96EB6 whole entry, species assumed): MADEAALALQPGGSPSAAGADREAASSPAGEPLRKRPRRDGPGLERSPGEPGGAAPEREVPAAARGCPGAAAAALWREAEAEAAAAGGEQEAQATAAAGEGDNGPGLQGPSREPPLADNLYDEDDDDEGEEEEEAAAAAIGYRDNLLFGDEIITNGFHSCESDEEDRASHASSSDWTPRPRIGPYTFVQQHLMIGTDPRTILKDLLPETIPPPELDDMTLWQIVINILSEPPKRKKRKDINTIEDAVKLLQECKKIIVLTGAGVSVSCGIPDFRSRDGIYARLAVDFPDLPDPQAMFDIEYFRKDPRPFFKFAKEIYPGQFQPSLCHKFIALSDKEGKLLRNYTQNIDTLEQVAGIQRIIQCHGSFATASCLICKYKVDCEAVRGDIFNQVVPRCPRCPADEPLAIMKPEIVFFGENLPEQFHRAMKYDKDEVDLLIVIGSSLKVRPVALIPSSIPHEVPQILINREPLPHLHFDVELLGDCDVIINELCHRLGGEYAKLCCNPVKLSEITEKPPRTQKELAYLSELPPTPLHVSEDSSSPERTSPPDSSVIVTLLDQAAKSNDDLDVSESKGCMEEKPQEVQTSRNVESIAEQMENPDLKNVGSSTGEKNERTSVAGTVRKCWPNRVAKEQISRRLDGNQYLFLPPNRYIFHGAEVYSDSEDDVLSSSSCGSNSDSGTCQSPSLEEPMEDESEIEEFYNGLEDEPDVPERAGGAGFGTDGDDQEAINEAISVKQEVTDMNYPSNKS

Compound	inhibition confirmed by HPLC assay [1]	SirT3 captured by standard pulldown assay [2]	SirT1 captured by standard pulldown assay [3]	SirT5 captured by standard pulldown assay [4]	IC50 [5]	effect on sirtuin capture in pulldown assay [6]
Cc1ccc(C(=O)Nc2ccc(S(=O)(=O)O)c3cc(S(=O)(=O)O)cc(S(=O)(=O)O)c23)cc1NC(=O)c1cccc(NC(=O)Nc2cccc(C(=O)Nc3cc(C(=O)Nc4ccc(S(=O)(=O)O)c5cc(S(=O)(=O)O)cc(S(=O)(=O)O)c45)ccc3C)c2)c1 [Suramin, suramin]	confirmed	less	less	less	low micromolar range	–
CC(/C=C/C(=O)NO)=C\[C@@H](C)C(=O)c1ccc(N(C)C)cc1 [TSA, trichostatin A]	–	–	–	–	–	no effects
